# In patent US20120157401A1, “METHODS FOR TREATING NEUROFIBROMATOSIS” (PTC Therapeutics, Inc., priority 2009, published 2012):
# Test system: hypoxia-inducible endogenous VEGF expression
# Assay: Hypoxia-inducible endogenous VEGF expression ELISA in HeLa cells, dose-response EC50 (Table 3)
# Type: cell-based, human
# Conditions: HeLa cells, hypoxic conditions (1% O2), 24-48 hours, VEGF in conditioned media; read-out: ELISA EC50
# Procedure: The ability of the Compounds to modulate hypoxia-inducible endogenous VEGF expression may be analyzed as follows. VEGF protein levels may be monitored by an ELISA assay (R&D Systems). Briefly, HeLa cells may be cultured for 24-48 hours under hypoxic conditions (1% O2, 5% CO2, balanced with nitrogen) in the presence or absence of a Compound. The conditioned media may then be assayed by ELISA, and the concentration of VEGF calculated from the standard ELISA curve of each assay.
# A dose-response analysis may be performed using the ELISA assay and conditions described above. The conditions for the dose-response ELISA are analogous to those described above. A series of, e.g., seven different concentrations may be analyzed. In parallel, a dose-response cytotoxicity assay may be performed using Cell Titer Glo (Promega) under the same conditions as the ELISA to ensure that the inhibition of VEGF expression was not due to the cytotoxicity.
row,SMILES,EC50 [µM]
1,C=CCOc1ccc(C2c3[nH]c4ccc(Cl)cc4c3CCN2C(=O)Oc2ccc(Cl)cc2)cc1 (centres unmarked) [Compound 400],< 0.008

# Same assay, conditions: Homo sapiens, HeLa, read-out: ELISA EC50 μM
row,SMILES,EC50 [µM]
1,O=C(Oc1ccc(Cl)cc1)N1CCc2c([nH]c3ccc(Cl)cc23)C1c1ccc(OCCCN2CC[C@@H](O)C2)cc1 (some centres unmarked) [Compound 1476],0.04 to 0.2
2,COc1ccc(C2c3[nH]c4ccc(Cl)cc4c3CCN2C(=O)Oc2ccc(Cl)cc2)cc1OCCN1CCOCC1 (centres unmarked) [Compound 1095],0.2 to 1
3,O=C(Oc1ccc(Cl)cc1)N1CCc2c([nH]c3ccc(Cl)cc23)C1c1ccc(OCCCN2CCCC2)cc1 (centres unmarked) [Compound 429],< 0.008
4,O=C(CN1CCOCC1)Nc1ccc(C2c3[nH]c4ccc(Cl)cc4c3CCN2C(=O)Oc2ccc(Cl)cc2)cc1 (centres unmarked) [Compound 454],0.008 to 0.04
5,CN1CCCC(COc2ccc(C3c4[nH]c5ccc(Cl)cc5c4CCN3C(=O)Oc3ccc(F)cc3)cc2)C1 (centres unmarked) [Compound 932],< 0.008
6,COc1cc(C2c3[nH]c4ccc(Cl)cc4c3CCN2C(=O)Oc2ccccc2)ccc1OCCCN1CCOCC1 (centres unmarked) [Compound 1130],0.008 to 0.04
7,Cc1ccc(OC(=O)N2CCc3c([nH]c4ccc(Cl)cc34)C2c2ccc(OCC3CCCN(C)C3)cc2)cc1 (centres unmarked) [Compound 951],0.008 to 0.04
8,COCCCNCCCCOc1ccc(C2c3[nH]c4ccc(Cl)cc4c3CCN2C(=O)Oc2ccc(F)cc2)cc1 (centres unmarked) [Compound 737],0.008 to 0.04
9,O=C(Oc1ccc(F)cc1)N1CCc2c([nH]c3ccc(Cl)cc23)C1c1ccc(OCCCCCCN2CCCC2)cc1 (centres unmarked) [Compound 773],< 0.008
10,COCCCNCCCCCCOc1ccc(C2c3[nH]c4ccc(Cl)cc4c3CCN2C(=O)Oc2ccc(F)cc2)cc1 (centres unmarked) [Compound 775],< 0.008
11,COCCN(CCCOc1cccc(C2c3[nH]c4ccc(Cl)cc4c3CCN2C(=O)Oc2ccc(F)cc2)c1)CCOC (centres unmarked) [Compound 1119],0.04 to 0.2
12,CN1CCCC(COc2ccc(C3c4[nH]c5ccc(Cl)cc5c4CCN3C(=O)Oc3ccccc3)cc2)C1 (centres unmarked) [Compound 952],0.008 to 0.04
13,CN(C)CCCOc1ccc(C2c3[nH]c4ccc(Cl)cc4c3CCN2C(=O)Oc2ccccc2)cc1 (centres unmarked) [Compound 493],0.04 to 0.2
14,COc1ccc(OC(=O)N2CCc3c([nH]c4ccc(Cl)cc34)C2c2ccc(OCCCN3CCOCC3)c(OC)c2)cc1 (centres unmarked) [Compound 1131],0.008 to 0.04
15,O=C(Oc1ccc(F)cc1)N1CCc2c([nH]c3ccc(Cl)cc23)C1c1cccc(OCCCN2CCSCC2)c1 (centres unmarked) [Compound 1117],0.008 to 0.04

# Same assay, conditions: Homo sapiens; HeLa cells, hypoxic conditions (1% O2), 24-48 hours, VEGF in conditioned media; read-out: ELISA EC50
row,SMILES,EC50 [µM]
1,Cc1ccc(OC(=O)N2CCc3c([nH]c4ccc(Cl)cc34)[C@@H]2c2ccc(OCCC(O)Cn3cncn3)cc2)cc1 (some centres unmarked) [Compound 1291],0.008 to 0.04
2,O=C(Oc1ccc(Cl)cc1)N1CCc2c([nH]c3ccc(Cl)cc23)C1c1ccc(OCCCCl)cc1 (centres unmarked) [Compound 921],< 0.008
3,O=C(Oc1ccc(Cl)cc1)N1CCc2c([nH]c3ccc(Cl)cc23)C1c1ccc(OCCO)cc1 (centres unmarked) [Compound 571],0.2 to 1
4,O=C(Oc1ccc(F)cc1)N1CCc2c([nH]c3ccc(Cl)cc23)C1c1ccc(OCCCCn2ccnc2)cc1 (centres unmarked) [Compound 742],< 0.008
5,COc1ccc(OC(=O)N2CCc3c([nH]c4ccc(Cl)cc34)C2c2ccc(OCCCn3nccn3)cc2)cc1 (centres unmarked) [Compound 1134],< 0.008
6,O=C(Oc1ccccc1)N1CCc2c([nH]c3ccc(Cl)cc23)C1c1ccccc1 (centres unmarked) [Compound 121],0.008 to 0.04
7,O=C(Oc1ccc(Cl)cc1)N1CCc2c([nH]c3ccc(Cl)cc23)[C@@H]1c1ccc(O)cc1 [Compound 1160],< 0.008
8,COc1cc(C2c3[nH]c4ccc(Cl)cc4c3CCN2C(=O)Oc2ccccc2)ccc1OCCCn1cncn1 (centres unmarked) [Compound 1150],0.008 to 0.04
9,Cc1ccc(C2c3[nH]c4ccc(Cl)cc4c3CCN2C(=O)Oc2ccc(Cl)cc2)cc1 (centres unmarked) [Compound 347],< 0.008
10,CC(C)(C)OC(=O)N1CCC(COc2ccc(C3c4[nH]c5ccc(Cl)cc5c4CCN3C(=O)Oc3ccc(Cl)cc3)cc2)CC1 (centres unmarked) [Compound 845],0.04 to 0.2
11,O=C(Oc1ccc(Cl)cc1)N1CCc2c([nH]c3ccc(Cl)cc23)C1c1ccc(OCC(O)Cn2ccnc2)cc1 (centres unmarked) [Compound 867],0.008 to 0.04
12,CC(C)c1ccc(C2c3[nH]c4ccc(Cl)cc4c3CCN2C(=O)Oc2ccc(Cl)cc2)cc1 (centres unmarked) [Compound 348],< 0.008
13,O=C(Oc1ccc(Cl)cc1)N1CCc2c([nH]c3ccc(Cl)cc23)[C@@H]1c1ccc(OCCCn2ccnn2)cc1 [Compound 1068],< 0.008
14,O=C(COc1ccc(C2c3[nH]c4ccc(Cl)cc4c3CCN2C(=O)Oc2ccccc2)cc1)Oc1ccccc1 (centres unmarked) [Compound 366],> 1
15,O=C(Oc1ccccc1)N1CCc2c([nH]c3ccc(Cl)cc23)C1c1ccc(OCC[C@H](O)CO)cc1 (some centres unmarked) [Compound 1178],< 0.008
16,O=C(Oc1ccc(F)cc1)N1CCc2c([nH]c3ccc(Cl)cc23)C1c1cccc(OCCCn2ccnn2)c1 (centres unmarked) [Compound 1125],0.2 to 1
17,O=C(Oc1ccc(F)cc1)N1CCc2c([nH]c3ccc(Cl)cc23)C1c1ccc(OCCCn2nccn2)cc1 (centres unmarked) [Compound 1017],< 0.008
18,O=C(Oc1ccc(Cl)cc1)N1CCc2c([nH]c3ccc(Cl)cc23)C1c1ccc(O)cc1 (centres unmarked) [Compound 577],0.04 to 0.2
19,COc1ccc(C2c3[nH]c4ccc(Cl)cc4c3CCN2C(=O)Oc2ccc(Cl)cc2)cc1OCCn1cncn1 (centres unmarked) [Compound 1089],0.2 to 1
20,N#Cc1ccc(C2c3[nH]c4ccc(Cl)cc4c3CCN2C(=O)Oc2ccc(Cl)cc2)cc1 (centres unmarked) [Compound 350],< 0.008
21,O=C(Oc1ccc(Cl)cc1)N1CCc2c([nH]c3ccc(Cl)cc23)C1c1ccc(I)cc1 (centres unmarked) [Compound 428],< 0.008
22,CC1(C)OC[C@H](CCOc2ccc(C3c4[nH]c5ccc(Cl)cc5c4CCN3C(=O)Oc3ccc(F)cc3)cc2)O1 (some centres unmarked) [Compound 1169],< 0.008
23,CCOC(COc1ccc(C2c3[nH]c4ccc(Cl)cc4c3CCN2C(=O)Oc2ccc(Cl)cc2)cc1)OCC (centres unmarked) [Compound 1228],< 0.008
24,O=C(Oc1ccccc1Cl)N1CCc2c([nH]c3ccc(Cl)cc23)C1c1ccc(OCCCn2cncn2)cc1 (centres unmarked) [Compound 926],< 0.008
25,O=C(Oc1ccc(Cl)cc1)N1CCc2c([nH]c3ccc(Cl)cc23)C1c1ccc(OCC[C@H](O)CO)cc1 (some centres unmarked) [Compound 1172],< 0.008
26,COc1ccc(C2c3[nH]c4ccc(Cl)cc4c3CCN2C(=O)Oc2ccc(F)cc2)c(F)c1 (centres unmarked) [Compound 1265],0.008 to 0.04
27,COCCOc1ccc(C2c3[nH]c4ccc(Cl)cc4c3CCN2C(=O)Oc2ccccc2)cc1 (centres unmarked) [Compound 436],< 0.008
28,O=C(Oc1ccc(F)cc1)N1CCc2c([nH]c3ccc(Cl)cc23)C1c1ccc(OCC(O)Cn2ccnn2)cc1 (centres unmarked) [Compound 941],< 0.008
29,COc1ccc(OC(=O)N2CCc3c([nH]c4ccc(Cl)cc34)C2c2ccc(OCC(=O)N3CCOCC3)cc2)cc1 (centres unmarked) [Compound 1027],0.04 to 0.2

# Same assay, conditions: Homo sapiens; HeLa cells, hypoxic conditions (1% O2), VEGF ELISA of conditioned media; read-out: ELISA EC50
row,SMILES,EC50 [µM]
1,Cc1cc(N)nn1CCOc1ccc(C2c3[nH]c4ccc(Cl)cc4c3CCN2C(=O)Oc2ccc(Cl)cc2)cc1 (centres unmarked) [Compound 1418],0.008 to 0.04
2,[H]/N=c1\sc(C)cn1CCOc1ccc([C@H]2c3[nH]c4ccc(Cl)cc4c3CCN2C(=O)Oc2ccc(Cl)cc2)cc1 [Compound 1568],0.008 to 0.04
3,Cc1ccc(OC(=O)N2CCc3c([nH]c4ccc(Cl)cc34)[C@@H]2c2ccc(OCCC(O)CNS(=O)(=O)C3CC3)cc2)cc1 (some centres unmarked) [Compound 1647],< 0.008
4,CCC(=O)NCC(O)COc1ccc(C2c3[nH]c4ccc(Cl)cc4c3CCN2C(=O)Oc2ccc(Cl)cc2)cc1 (centres unmarked) [Compound 1558],0.008 to 0.04
5,Nc1ccn(CCOc2ccc(C3c4[nH]c5ccc(Cl)cc5c4CCN3C(=O)Oc3ccc(F)cc3)cc2)n1 (centres unmarked) [Compound 1413],< 0.008
6,N#CCOc1ccc(C2c3[nH]c4ccc(Cl)cc4c3CCN2C(=O)Oc2ccccc2Cl)cc1 (centres unmarked) [Compound 1546],0.04 to 0.2
7,[H]/N=c1\sccn1CCOc1ccc(C2c3[nH]c4ccc(Cl)cc4c3CCN2C(=O)Oc2ccc(Cl)cc2)cc1 (centres unmarked) [Compound 1393],< 0.008
8,O=C(NCC(O)CCOc1ccc([C@H]2c3[nH]c4ccc(Cl)cc4c3CCN2C(=O)Oc2ccc(Cl)cc2)cc1)c1ccccn1 (some centres unmarked) [Compound 1629],< 0.008
9,CCOC(=O)NCC(O)CCOc1ccc([C@H]2c3[nH]c4ccc(Cl)cc4c3CCN2C(=O)Oc2ccc(Cl)cc2)cc1 (some centres unmarked) [Compound 1636],< 0.008
10,COc1ccc(OC(=O)N2CCc3c([nH]c4ccc(Cl)cc34)[C@@H]2c2ccc(OCC(C)(CO)CO)cc2)cc1 [Compound 1337],0.008 to 0.04
11,COCCOC(=O)NCC(O)CCOc1ccc([C@H]2c3[nH]c4ccc(Cl)cc4c3CCN2C(=O)Oc2ccc(Cl)cc2)cc1 (some centres unmarked) [Compound 1637],< 0.008
12,NC(=O)c1cn(CCOc2ccc(C3c4[nH]c5ccc(Cl)cc5c4CCN3C(=O)Oc3ccc(F)cc3)cc2)nc1N (centres unmarked) [Compound 1416],0.04 to 0.2
13,CC(C)SCCCOc1ccc(C2c3[nH]c4ccc(Cl)cc4c3CCN2C(=O)Oc2ccc(Cl)cc2)cc1 (centres unmarked) [Compound 1553],< 0.008
14,CC(CO)(CO)COc1ccc(C2c3[nH]c4ccc(Br)cc4c3CCN2C(=O)Oc2ccc(F)cc2)cc1 (centres unmarked) [Compound 1352],< 0.008
15,O=C(Oc1ccc(Cl)cc1)N1CCc2c([nH]c3ccc(Cl)cc23)[C@@H]1c1ccc(OCCc2cn(C3OC(CO)C(O)C(O)C3O)nn2)cc1 (some centres unmarked) [Compound 1676],> 1
16,CS(=O)(=O)CCCOc1ccc(C2c3[nH]c4ccc(Cl)cc4c3CCN2C(=O)Oc2ccc(Cl)cc2)cc1 (centres unmarked) [Compound 1551],< 0.008
17,CCS(=O)(=O)NCC(O)CCOc1ccc([C@H]2c3[nH]c4ccc(Cl)cc4c3CCN2C(=O)Oc2ccc(Cl)cc2)cc1 (some centres unmarked) [Compound 1638],< 0.008
